Experiments:
[1] = system: skin of older probands; test: Regular topical application of ascorbic acid to the skin of older probands (confocal microscopy in vivo)
From the text: Status and changes of the microcapillary system and the rete peg pattern can be shown, followed, and quantified on probands quickly (in minutes) by means of modern techniques, such as confocal microscopy in vivo—i.e., free of injury, repeatedly as often as desired, and with dynamic responses to actual influences—both with respect to the density of the rete pegs or microcapillaries (number per surface unit) and with respect to their height, which makes it possible to estimate the size of the exchange surface.

[2] = cited from earlier work

Compound: O=C1O[C@H]([C@@H](O)CO)C(O)=C1O [ascorbic acid]
- density of rete pegs and microcapillaries [1]: reversibly increased to the extent of youthful skin
- elasticity parameters of the skin (formation of suction blisters) [1]: improvement
- moisture content and roughness of the horny layer [1]: improvement
- stability to heat ([2]; heat): sensitive to heat
- stability in a pure, dry state ([2]; pure, dry state, light, air, heat): relatively resistant to light, air, and heat
- stability in the presence of traces of heavy metal and in an alkaline environment ([2]; traces of heavy metal, alkaline environment, air and atmospheric oxygen): decomposes
